The results in this text go back to patent US20250127905A1, “GLUTARIMIDE COMPOUND AND USE THEREOF” (MEDSHINE DISCOVERY INC., priority 2021, published 2025).

This series is described as follows: Pharmacokinetic evaluation in cynomolgus monkeys. In kind it is in vivo. An excerpt: In this study, male cynomolgus monkeys were selected as test animals, and LC/MS/MS method was used to quantify plasma concentrations of the test compound intravenously injected or intragastrically administered to cynomolgus monkeys at different time points, so as to evaluate the pharmacokinetic profile of the test drug in cynomolgus monkeys.
Cynomolgus monkeys (male, 2 to 5 kg, Hainan Jingang Biotech Co., Ltd.).
A clarified solution of the test compound was slowly injected into cynomolgus monkeys (feeding) via the peripheral vein (vehicle: 5% DMSO/10% Solutol/85% H2O), or intragastrically administered into cynomolgus monkeys (feeding). For intravenous injection, 0.5 mL of blood was collected from the peripheral vein at 0 h (pre-administration) and 0.083 h, 0.25 h, 0.5 h, 1 h, 2 h, 4 h, 6 h, 8 h, and 24 h after administration, placed in an anticoagulant tube added with EDTA-2K, and centrifuged at 3200 g for 10 minutes at 2 to 8° C. to separate the supernatant. For oral administration, 0.5 mL of blood was collected from the peripheral vein at 0 h (pre-administration) and 0.083 h, 0.25 h, 0.5 h, 1 h, 2 h, 4 h, 6 h, 8 h, and 24 h after administration, placed in an anticoagulant tube added with EDTA-2K, and centrifuged at 3200 g for 10 minutes at 2 to 8° C. to separate the supernatant. Plasma concentrations were determined by LC-MS/MS method, and relevant pharmacokinetic parameters were calculated using Phoenix WinNonlin 6.3 pharmacokinetic software with non-compartmental model linear-log trapezoidal method.

Where [1] appears, read: Intragastric administration (5 mg/kg).

Molecules are shown by their SMILES. Where a name gives a salt, the structure may show the parent alone.

As a reminder, the clearance is the volume of plasma or blood freed of the substance per unit of time. Usually half-life stands for the time needed for the level to fall by half in the phase considered. As a reminder, the bioavailability is dose-corrected exposure relative to a reference, in per cent. Consider `O=C1CCC(c2noc3c(NC(=O)CN4CCN(C[C@H]5CC[C@H](n6cc(NC(=O)c7cnn8ccc(N9C[C@H]%10C[C@@H]9CO%10)nc78)c(C(F)F)n6)CC5)CC4)cccc23)C(=O)N1` (some centres unmarked) [Hydrochloride of WX015], for which, under setting [1], the “Area under the drug-time curve (0-inf)” value is 1.14 µM·h, the Peak concentration was found to be 0.14 µM and the “Time to peak concentration” value is reported as 4.0 h. The “Area under the drug-time curve (0-inf)” value (Intravenous injection (0.5 mg/kg)) was found to be 0.21 µM·h. Also, the clearance (male, cynomolgus monkey, plasma, Intravenous injection (0.5 mg/kg)) amounted to 48.5 mL/min/kg. Besides, the Vd (male, cynomolgus monkey, plasma, Intravenous injection (0.5 mg/kg), read-out: Apparent volume of distribution) was 8.83 L/kg. Under “male, cynomolgus monkey, plasma, Intravenous injection (0.5 mg/kg), read-out: Elimination half-life (converted)”, the half-life is 2.33 h. Moreover, where the note is “male, cynomolgus monkey, plasma, oral, IV 0.5 mg/kg, intragastric 5 mg/kg, read-out: Bioavailability F”, the bioavailability turned out to be 55.5%.
